Assay: Modulated differential scanning calorimetry (glass transition in the reversing signal)
Assay type: physicochemical
Method: Modulated Differential scanning calorimetry (MDSC) was performed to evaluate the thermal characteristics before and after melt extrusion with injection of pressurized carbon dioxide. […] A glass transition is observed as an inflection in the DSC profile when heat flow is plotted against temperature. Often, the glass transition is accompanied with an enthalpy relaxation, which is seen as an endothermic signal superimposed on the glass transition. Furthermore, these polymers can be hydrophilic and thus they may have adsorbed a significant amount of water. Evaporation of water is also an endothermic process. These signals make interpretation of the glass transition difficult. Therefore, MDSC was used so that the different thermal events could be elucidated with regard to the reversible and non-reversible transitions. […]
The measurements were performed using a TA Instruments modulated DSC Q1000 differential scanning calorimeter and thermal analysis controller (TA Instruments, New Castle, Del., USA). […] The samples were analysed in standard (open) aluminum as well as in hermetically sealed TA Instruments pans. […] The glass transition was measured at the inflection point as half the height of the shift in the heat flow signal (Tg 1/2 cp). […]
The samples measured in open pans as well as in hermetically sealed pans were analysed at least in duplicate.

## CCC(C)n1ncn(-c2ccc(N3CCN(c4ccc(OCC5COC(Cn6cncn6)(c6ccc(Cl)cc6Cl)O5)cc4)CC3)cc2)c1=O (stereo not shown) [itraconazole]
  Melting enthalpy ΔH of pure itraconazole: 85 J/g

Source: patent US20070098801A1, “Particles shaped as platelets” (JANSSEN PHARMACEUTICA N.V., priority 2003, published 2007)
